Assay results as given in ChEMBL document CHEMBL3301546, “MMV Malaria Box yeast growth screening”.

What was measured:
Format in all cases: functional
Saccharomyces cerevisiae [1] = assay: (§1) MMV: Growth assays were conducted using the prototrophic S. cerevisiae strain JHY222. Each MMV compound (0.1 mM) was tested in rich media containing dextrose as a carbon source (Yeast Extract, Peptone, Dextrose; YPD). The growth rate in the presence of each MMV compound was calculated as follows: (i) the first 10 OD readings were averaged and subtracted from all OD readings of the corresponding curve to set the baseline of the growth curve to zero, and (ii) the area under the curve (AUC) was then calculated as the sum of all OD readings. […] A relative growth value was calculated as follows: AUC(DRUG) - AUC(DMSO)/AUC(DMSO); where AUC(DMSO) represents growth measured in a DMSO control well that was on the same microtiter plate of the drug-treated culture.
Saccharomyces cerevisiae [2] = assay: as §1, with “minimal” for “rich”, “Nitrogen Base,” for “Extract, Peptone,”, “YNBD).” for “YPD).”
Saccharomyces cerevisiae [3] = assay: as §1, with “minimal” for “rich”, “ethanol and glycerol” for “dextrose”, “as” for “as a”, “sources” for “source”, “Nitrogen Base, Ethanol, Glycerol; YNBEG).” for “Extract, Peptone, Dextrose; YPD).”

SMILES | Relative Growth (Saccharomyces cerevisiae [1]) | Relative Growth (Saccharomyces cerevisiae [2]) | Relative Growth (Saccharomyces cerevisiae [3])
CN(C)CCCNc1c2ccccc2nc2ccccc12 | 0.0036 | -0.0065 | 0.0887
N=c1n(CCN2CCCCC2)c2ccccc2n1CC(=O)c1ccc(Cl)c(Cl)c1 | -0.0413 | 0.1082 | 0.0494
Cc1ccc(Nc2nc(NCCO)c3ccccc3n2)cc1C | -0.1142 | 0.0139 | 0.0228
O=C(Nc1ccc(Cl)cc1C(=O)Nc1ccncc1)c1ccc(Cl)cc1Cl | 0.0512 | 0.0109 | -0.1824
OC(CNC1CCCCC1)Cn1c2ccccc2c2ccccc21 (stereo not given) | -0.0297 | 0.0533 | 0.1093
COc1ccc(CCn2c(=N)c(C(=O)NCc3cccnc3)cc3c(=O)n4cccc(C)c4nc32)cc1 | 0.0999 | 0.0391 | -0.1242
CCOC(=O)c1ccc2nc(-c3ccccc3)cc(O)c2c1 | -0.0952 | 0.1214 | 0.0616
COc1ccc(OC)c(C2C3=C(CC(C)(C)CC3=O)N(c3ccc(Cl)c(Cl)c3)C3=C2C(=O)CC(C)(C)C3)c1 | -0.0143 | -0.0153 | -0.1129
COc1ccc(C(=O)NC(c2ccc(Cl)cc2Cl)c2cc(Cl)c3cccnc3c2O)cc1 (stereo not given) | 0.0373 | -0.2517 | -0.3135
CCOC(=O)c1cn(CC)c2cc(N(C)CCc3ccc(OC)c(OC)c3)c(F)cc2c1=O | -0.6378 | -0.8912 | -0.9835
COc1ccc(C=C2SC(Nc3ccc(F)cc3)=NC2=O)c(OC)c1 | -0.0657 | -0.7691 | -0.8081
COc1ccc(-c2nonc2NC(=O)c2cccc(Cl)c2)cc1OC | -0.028 | 0.1832 | 0.0561
COc1ccc(C2N(C)c3ccccc3N2C)cc1 | -0.0039 | -0.0194 | 0.0867
CC(C)c1ccc(CNCC(O)c2ccccc2)cc1.Cl (stereo not given) | -0.02 | 0.1145 | 0.0017
COc1cc(C(=O)ON=C(N)Cc2cccc3ccccc23)cc(OC)c1OC | -0.2539 | 0.2835 | 0.1784
COc1ccc(C(C)=O)cc1N1C(=O)C2C(C1=O)C1(c3ccccc3)C(=O)C2(c2ccccc2)C(c2ccc(C)cc2)=C1c1ccc(C)cc1 (stereo not given) | -0.992 | -0.0144 | 0.0688
CCN1CCN(Cc2ccc(NC(=O)c3cc4ccc5cccnc5c4[nH]3)cc2)CC1 | 0.0075 | 0.0158 | -0.0693
CCOc1cccc(C(=O)Nc2ccc(-c3nc4ccccc4[nH]3)cc2)c1 | -0.0469 | 0.0858 | 0.032
O=C(NCc1ccco1)C1CCN(S(=O)(=O)c2ccc(Cl)cc2)CC1 | -0.0768 | -0.224 | -0.0245
COc1ccc(-c2nc(NC(=O)CS(=O)(=O)c3ccc(F)cc3)sc2C)cc1 | 0.0127 | 0.0372 | 0.1484
CCCc1c(C)nc2ccc(Br)cc2c1O | 0.0054 | -0.0231 | -0.1859
CN(C)c1ccc(C(O)(c2ccc(N(C)C)cc2)c2ccc(N(C)C)cc2)cc1 [METHYLROSANILINE] | -0.0138 | -0.0186 | -0.4054
Br.Cc1ccc(C)c(-c2csc(Nc3ccc(C)c(C)c3)n2)c1 | -0.11 | -0.0757 | -0.3216
Cc1cc(C)c2c(c1)OCN(Cc1ccccc1Cl)C2 | -0.0627 | -0.0636 | -0.3214
Cc1cc(NCCN2CCCCC2)c2ccc3ccccc3c2n1 | 0.101 | 0.1405 | 0.1901
Cc1ccc(C(=O)c2oc3ccc4c(C)cc(=O)oc4c3c2C)cc1 | -0.0457 | -0.0077 | -0.1519
CCC(C)NCC(O)(c1ccc(Cl)cc1)c1ccc(Cl)cc1 (stereo not given) | 0.0173 | 0.042 | -0.0906
COc1cccc(O)c1CN1CCC2(CCCN(Cc3ccc(F)cc3)C2)C1 (stereo not given) | 0.0333 | 0.0312 | 0.0078

SMILES | Relative Growth (Saccharomyces cerevisiae [1]) | Relative Growth (Saccharomyces cerevisiae [2]) | Relative Growth (Saccharomyces cerevisiae [3])
COc1ccc(NC(=O)C2c3ccccc3C(=O)N(CC(C)C)C2c2cccs2)cc1 (stereo not given) | -0.1052 | 0.0442 | -0.1656
CC(C)CCNCC(O)Cn1c2ccccc2c2ccccc21.Cl (stereo not given) | -0.9987 | -0.9941 | -1.0262
Cc1ccc(CN2CCC(C(=O)Nc3ccc(-c4cc5ccccc5[nH]4)cc3)CC2)o1 | 0.0612 | -0.0113 | -0.0247
CN1c2ccccc2N(C)C1c1ccc2c(c1)OCO2 | 0.0103 | -0.0051 | 0.1265
O=C1CC(O)(C(F)(F)C(F)(F)F)Oc2ccccc21 (stereo not given) | -0.0644 | -0.042 | -0.6809
COc1ccc(CCN2C(=O)c3[nH]nc(-c4cc(Cl)c(C)cc4O)c3C2c2ccccc2F)cc1 (stereo not given) | -0.0103 | -0.1352 | -0.023
COc1ccc(C(=O)Nc2ccc3nc(N4CCCCC4)cc(C)c3c2)cc1OC | -0.0828 | -0.1419 | -0.4538
O=C(NC1CCCCC1)C(c1cccs1)N(CCc1ccccc1)C(=O)c1ccco1 (stereo not given) | -0.0109 | -0.1735 | -0.2518
Cc1ccc(CSCc2ccc(C(=O)NC3CC3)o2)cc1 | 0.0613 | -0.0643 | -0.1982
Cc1cc(Nc2ccc3ccccc3c2)n2ncnc2n1 | 0.0302 | 0.0095 | -0.024
O=C(NC1CCCC1)c1ccc(N2CCC(NCc3cccc(C(F)(F)F)c3)CC2)cc1 | 0.09 | -0.054 | -0.7428
O=C(O)C(=O)O.Oc1ccc(Br)cc1CN1CCN(Cc2cccc(F)c2)CC1 | -0.1015 | -0.047 | -0.3839
CCOc1cc(Cl)c(C(C)NC(=O)c2cccc(OC)c2)cc1OCC (stereo not given) | -0.0293 | -0.1186 | -0.0623
O=C(NCC(c1ccsc1)N1CCCCCC1)c1ccc(C(F)(F)F)cc1 (stereo not given) | -0.0232 | 0.0719 | 0.0335
Brc1ccc(Nc2nc3ccccc3nc2Nc2ccc(Br)cc2)cc1 | -0.9981 | -0.0577 | -0.5592
CCn1c(SCC(=O)Nc2cc(C(F)(F)F)ccc2Cl)nc2ccccc2c1=O | -0.0109 | -0.0156 | -0.159
CC(C)OCc1cc(CN2CCN(c3cccc(Cl)c3)CC2)c(O)c2ncccc12 | -1.0115 | -0.1654 | -0.1438
OC1=C2C(=Nc3ccccc3SC2c2ccc(Br)cc2)c2ccccc21 (stereo not given) | -0.0041 | 0.0198 | 0.1502
COc1cccc(Nc2nc(N)c3ccccc3n2)c1.Cl | 0.0358 | 0.0154 | -0.036
CC(C)(C)C(=O)Nc1ccc(C(=O)Nc2cccc(-c3nc4ccccc4[nH]3)c2)cc1 | 0.0628 | -0.1639 | -0.4785
CC(=O)Nc1nnc(SCc2c(C)cc(C(C)(C)C)cc2C)s1 | 0.0168 | 0.0621 | 0.0163
COC(=O)c1ccc(C2C3=C(O)CC(c4ccc(F)cc4)CC3=Nc3ccccc3N2C(=O)c2ccccc2)cc1 (stereo not given) | -0.0053 | 0.2377 | 0.1245
COc1ccc(C(=O)Nc2nonc2-c2ccc(OC)c(OC)c2)cc1Cl | -0.0037 | 0.1144 | 0.0586
OC(CNC1CCCCC1)Cn1c2ccc(I)cc2c2cc(I)ccc21 (stereo not given) | 0.0125 | 0.4002 | -0.0994
Cc1ccc(OCCCCCCNCCO)c(C)c1 | -0.034 | 0.026 | -0.0581
Cc1ccc(-c2nc3ccccc3o2)cc1NCc1cc(Cc2ccccc2)ccc1O | -0.0705 | 0.0201 | -0.1416
CCc1c(C)c(=N)c2ccccc2n1C.I | -0.0391 | 0.0986 | 0.0462
